Assay results from the supplement of paper PMC10307832.

Experiments:
Test in all cases: relative viability (nuclei count vs DMSO), 5 days (fraction); higher = more cells survive
Cabozantinib = compound: COc1cc2nccc(Oc3ccc(NC(=O)C4(C(=O)Nc5ccc(F)cc5)CC4)cc3)c2cc1OC [Cabozantinib]
In short: (§1)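 On vehicle-anchored 1536-well plates, lung cancer cell lines held overnight at 37 °C were pinned with five library-drug doses (not always all listed) spaced by √10. With no medium change over 5 days, they were then fixed, permeabilised and Hoechst-stained in one step and imaged at 4×. MetaXpress counted nuclei, and viability is the median across plates of treated-well over vehicle-well nuclei. Acceptance needed control CV below 25% and at least one doubling.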

Zosuquidar = compound: O[C@@H](COc1cccc2ncccc12)CN1CCN([C@@H]2c3ccccc3[C@@H]3[C@H](c4ccccc42)C3(F)F)CC1 [Zosuquidar]
In short: as §1

Kobe2602 = compound: C1=CC(=CC=C1NC(=S)NNC2=C(C=C(C=C2[N+](=O)[O-])C(F)(F)F)[N+](=O)[O-])F [Kobe2602]
In short: as §1

Cell Line	relative viability (Cabozantinib; 0.02 µM)	relative viability (Cabozantinib; 0.06325 µM)	relative viability (Cabozantinib; 0.2 µM)	relative viability (Cabozantinib; 0.6325 µM)	relative viability (Cabozantinib; 2 µM)	relative viability (Zosuquidar; 0.01 µM)	relative viability (Zosuquidar; 0.03162 µM)	relative viability (Zosuquidar; 0.1 µM)	relative viability (Zosuquidar; 0.3162 µM)	relative viability (Zosuquidar; 1 µM)	relative viability (Kobe2602; 0.2 µM)	relative viability (Kobe2602; 0.6325 µM)	relative viability (Kobe2602; 2 µM)	relative viability (Kobe2602; 6.325 µM)	relative viability (Kobe2602; 20 µM)
NCI-H460	1.05	1.06	1.05	0.976	1.03	0.993	0.964	0.969	1.02	0.974	1.03	0.955	0.986	1.04	0.963
NCI-H3122	0.995	1.05	1.03	0.983	0.998	0.984	0.952	0.919	1.07	0.987	1.01	0.971	1.01	0.985	1.04
HCC-44	1.01	1.05	1.04	1.06	1.01	1.01	1.03	0.987	1.05	0.978	0.982	1.02	0.974	0.958	0.942
HCC-78		0.958	0.471	0.37	0.447	1.07	1		0.997	0.897	0.984	0.975	0.968	0.918	1.15
COR-L23	1.11	1.04	0.993	1	1.07	1.06	1.11	1.02	1.1	1.06	0.95	1.06	1.09	1.09	0.95
NCI-H2009	1.08	1.06	1.08	1.07	1.15	1.02	0.945	0.929	1.06	0.971	1.02	1.08	0.966	1.04	0.99
NCI-H322M	0.874	1.17	0.694	0.983	0.952	0.907	1.07	0.667	0.924	0.916	0.97	1.07	1.03	0.984	1.08
NCI-H2228	1.05	1.11	0.938	0.879	0.871	0.901	0.979	1.02	0.952	1.03	1.02	1.11	1.01	0.944	1.11
NCI-H358	0.936	1.02	0.833	0.981	0.813	0.959	0.914	0.871	0.878	0.937	0.993	1.03	0.862	0.828	0.97
NCI-H2342	0.909	1.02	0.866	0.952	0.888	0.876	0.964	0.758	1.11	1	1.03	1.06	0.92	0.946	1.12
LK-2	0.764	1.26	0.924	0.927	0.926	0.997	1.03	0.934	1.11	1.01	1.14	1.12	0.974	0.887	1.19
NCI-H1755	0.994	1.04	0.977	0.923	0.857	0.995	1.01	0.94	1.05	1.01	0.962	0.971	0.993	0.985	0.994
A-427	0.996	1.01	1.02	0.972	0.98	1.02	1.01	0.801	1.14	0.96	1.03	1.12	0.962	1.04	1.06
PC-3 [JPC-3]	1.03	1.21		1.03	1.09	1.06	0.992	0.883	0.972	1.01	1.07	1.09	1.01	1.01	0.954
LOU-NH91	0.919	1.13	0.885	0.926	0.975	0.888	0.953	0.775	1.01	0.922	0.993	1.05	0.912	0.999	1.04
BEN	0.918	1.11	1	0.95	0.808	0.994	0.876	0.801	0.938	0.977	1.14	1.02	0.925	0.981	1.01
NCI-H2085	1.07	1.09	0.942	1.05	1.01	0.977	0.955	0.797	1	0.959	1.02	0.994	0.959	0.991	0.96
LC-2-ad	0.838	1.13	0.946	0.878	0.704	0.919	1.07	0.923	1.13	0.995	0.999	1.02	0.954	0.951	1.08
ABC-1	0.902	1.05	0.993	0.875	0.887	0.926	0.841	1.04	0.986	0.911	0.941	1.1	0.769	1.06	1.04
NCI-H727	0.852	1.05	0.808	0.912	0.961	0.971	1.06	0.8	1.13	1.01	1.07	0.952	0.878	0.85	0.938
NCI-H1792		1.21	0.915	0.894	0.898	0.833	0.94	0.729	0.954	0.834	0.99	1.02	0.848	0.978	1.07
EPLC-272H	0.921	1.17	0.821	0.872	0.856	0.963	0.995	0.781	1.06	0.892	0.98	1.16	0.952	1.02	1.04
NCI-H1563	0.99	0.977	1.04	0.915	1.01	0.936	0.929	0.974	1.13	0.865	0.899	1	0.96	0.971	0.981

Cell Line	relative viability (Cabozantinib; 0.02 µM)	relative viability (Cabozantinib; 0.06325 µM)	relative viability (Cabozantinib; 0.2 µM)	relative viability (Cabozantinib; 0.6325 µM)	relative viability (Cabozantinib; 2 µM)	relative viability (Zosuquidar; 0.01 µM)	relative viability (Zosuquidar; 0.03162 µM)	relative viability (Zosuquidar; 0.1 µM)	relative viability (Zosuquidar; 0.3162 µM)	relative viability (Zosuquidar; 1 µM)	relative viability (Kobe2602; 0.2 µM)	relative viability (Kobe2602; 0.6325 µM)	relative viability (Kobe2602; 2 µM)	relative viability (Kobe2602; 6.325 µM)	relative viability (Kobe2602; 20 µM)
EKVX	0.919	1.12	0.915	1.01	1.1	0.952	0.961	0.737	1.02	0.97	0.968	1.02	0.922	0.976	1.09
NCI-H1666	1.01	1.08	1.02	1.03	1.06	0.997	1.08	0.962	1.08	0.945	1.06	1.01	0.963	1.03	1
HCC-15	0.972	1.11	1.01	0.994	1.02	0.959	0.937	0.956	1.04	0.972	1	1.03	0.976	0.998	0.991
LCLC-103H	0.824	1.16	1.02	1.05	0.953	0.911	0.973	0.752	1.02	1.06	1.01	1.01	0.987	0.992	0.981
NCI-H2405	0.807	1.11	1.09	1.01	1.08	1.1	0.942	0.981	1.03	0.93	1.04	1.09	0.964	1.09	1.14
NCI-H1915	0.994	1.03	1.02	0.996	0.994	0.986	1.04	0.926	1.04	1.01	0.998	1.08	0.987	0.985	1
NCI-H661	0.986	1.03	1.01	1.02	1.06	0.945	0.976	0.91	1.03	0.982	1	0.952	0.983	0.991	1.02
NCI-H1650	0.925	1.13	0.805	1.02	0.89	0.885	0.929	0.876	1.06	0.912	0.891	1.02	0.99	0.913	0.846
NCI-H647	0.994	1.14	0.986	0.92	0.881	0.908	0.951	0.918	1.13	0.884	0.938	1.09	0.936	0.91	0.948
HCC-366	1.06	1.02	0.99	0.967	0.995	1	1.04	0.977	1.04	0.986	0.985	0.982	1.02	1.02	1.07
NCI-H2087	1.09	1.16	1.03	0.922	1.02	1.06	0.971	0.907	1.19	1.07	1.02	1.08	0.995	1.08	1.13
NCI-H522	0.863	0.98	0.897	0.98	1.15	1.01	0.809	0.955	1.06	0.907	1.08	1.11	0.997	0.895	0.979
SK-LU-1	0.97	1.24	1.08	0.926	0.942	1.1	1.02	0.962	1.11	1.07	1	1.13	0.937	1.04	1.1
HOP-62	1.1	1.1	1.16	1.08	1.09	1.03	1.05	1.02	1.05	0.975	0.983	1.07	0.952	1.04	1.01
NCI-H2126	0.747	1.05	0.991	0.99	1.11	0.96	0.996	0.741	1.03	1.03	1.01	1.02	0.975	0.971	0.961
NCI-H441	0.738	1.23	0.96	0.793	0.879	1.14	0.881	0.829	1.06	1.17	0.973	1.2	0.917	1.04	1.16
NCI-H2170	0.991	1	0.864	1.02	1.04	0.989	1	0.932	0.971	0.954	1.03	0.958	0.974	0.992	0.871
SW 1573	0.984	1.05	1.01	0.979	0.819	0.925	1	1.03	1.07	0.934	0.933	1.02	0.915	0.883	0.907
H3255	0.948	1.04		0.994	1.07	0.959	0.952	0.8	1.07	0.931	0.959	1.03	0.909	0.91	0.915
EMC-BAC-2	0.776	1.1	1.15	1.04	1.01	1.01	0.955	0.89	1.12	0.73	1.02	1.26	0.947	1.12	0.999
SW 900	0.807	1.14	0.815	0.959	0.903	0.904	0.889	0.705	1.22	0.759	0.987	0.861	0.83	0.906	0.975
CAL-12T	1.04	1.14	1.01	0.982	1.01	1.07	1.16	0.923	1.2	0.932	0.965	1.06	0.896	0.997	0.957
